Experimental data taken from patent US10787459B2, “Bicyclic compounds as ATX inhibitors” (Hoffmann-La Roche Inc., priority 2015, dated 2020).

Target: ATX (human His-tagged) (Homo sapiens (Human), UniProt Q13822)
Assay: Human ATX enzyme inhibition assay (fluorescence quenching, MR121 substrate)
Format: biochemical
Conditions: 30 nM ATX, 1 μM MR121 substrate, 30° C., pH 8.0; read-out: ATX IC50
From the text: Human ATX Enzyme Inhibition Assay
Assay working solutions were made as follows:

Row | IC50 [µM] | Compound
1 | 0.005 | O=C(OCc1ccc(OC(F)(F)F)cc1)N1C[C@@H]2CN(C(=O)c3ccc4[nH]nnc4c3)C[C@@]2(F)C1 (relative stereo) [Example 1.00, trans-5-(1H-Benzotriazole-5-carbonyl)-3a-fluoro-hexahydro-pyrrolo[3,4-c]pyrrole-2-carboxylic acid 4-trifluoromethoxy-benzyl ester]
2 | 0.012 | CO[C@]12CN(C(=O)OCc3ccc(OC(F)(F)F)cc3)C[C@@H]1CN(C(=O)c1ccc3[nH]nnc3c1)C2 (relative stereo) [Example 1.01, trans-5-(1H-benzotriazole-5-carbonyl)-3a-methoxy-hexahydro-pyrrolo[3,4-c]pyrrole-2-carboxylic acid 4-trifluoromethoxy-benzyl ester]
3 | 0.01 | CO[C@]12CN(C(=O)CCc3ccc(OC(F)(F)F)cc3)C[C@@H]1CN(C(=O)c1ccc3[nH]nnc3c1)C2 (relative stereo) [Example 1.02, trans-1-[5-(1H-benzotriazole-5-carbonyl)-3a-methoxy-3,4,6,6a-tetrahydro-1H-pyrrolo[3,4-c]pyrrol-2-yl]-3-[4-(trifluoromethoxy)phenyl]propan-1-one]
4 | 0.013 | CO[C@@]12CN(C(=O)c3cc(OCC4CCOCC4)nc(C4CC4)c3)C[C@H]1CN(C(=O)c1ccc3[nH]nnc3c1)C2 (relative stereo) [Example 1.03, trans-[5-[2-cyclopropyl-6-(oxan-4-ylmethoxy)pyridine-4-carbonyl]-3a-methoxy-3,4,6,6a-tetrahydro-1H-pyrrolo[3,4-c]pyrrol-2-yl]-(1H-benzotriazol-5-yl)methanone]
5 | 0.013 | C[C@]12CN(C(=O)OCc3ccc(OC(F)(F)F)cc3)C[C@@H]1CN(C(=O)c1ccc3[nH]nnc3c1)C2 (relative stereo) [Example 1.04, trans-5-(1H-benzotriazole-5-carbonyl)-3a-methyl-hexahydro-pyrrolo[3,4-c]pyrrole-2-carboxylic acid 4-trifluoromethoxy-benzyl ester]
6 | 0.018 | CO[C@]12CN(C(=O)CCc3ccc(OC(F)(F)F)cc3)C[C@@H]1CN(C(=O)c1ccc3[nH]c(=O)n(C)c3c1)C2 (relative stereo) [Example 1.05, trans-5-[3a-methoxy-2-[3-[4-(trifluoromethoxy)phenyl]propanoyl]-3,4,6,6a-tetrahydro-1H-pyrrolo[3,4-c]pyrrole-5-carbonyl]-3-methyl-1H-benzimidazol-2-one]
7 | 0.002 | CO[C@@]12CN(C(=O)c3cc(OCC4CCOCC4)nc(C4CC4)c3)C[C@H]1CN(C(=O)c1ccc3[nH]c(=O)n(C)c3c1)C2 (relative stereo) [Example 1.06, trans-5-[5-[2-cyclopropyl-6-(oxan-4-ylmethoxy)pyridine-4-carbonyl]-3a-methoxy-3,4,6,6a-tetrahydro-1H-pyrrolo[3,4-c]pyrrole-2-carbonyl]-3-methyl-1H-benzimidazol-2-one]
8 | 0.03 | CO[C@]12CN(C(=O)CCc3ccc(OC(F)(F)F)cc3)C[C@@H]1CN(C(=O)N1CCc3[nH]nnc3C1)C2 (relative stereo) [Example 2.01, trans-1-[3a-methoxy-5-(1,4,6,7-tetrahydrotriazolo[4,5-c]pyridine-5-carbonyl)-3,4,6,6a-tetrahydro-1H-pyrrolo[3,4-c]pyrrol-2-yl]-3-[4-(trifluoromethoxy)phenyl]propan-1-one]
9 | 0.012 | C[C@@]12CN(C(=O)OCc3ccc(OC(F)(F)F)cc3)C[C@H]1CN(C(=O)c1ccc3[nH]nnc3c1)C2 (single isomer, unassigned) [Example 3.02, (+)-trans-5-(1H-benzotriazole-5-carbonyl)-3a-methyl-hexahydro-pyrrolo[3,4-c]pyrrole-2-carboxylic acid 4-trifluoromethoxy-benzyl ester]
10 | 0.019 | CO[C@@]12CN(C(=O)OCc3ccc(OC(F)(F)F)cc3)C[C@H]1CN(C(=O)c1ccc3[nH]nnc3c1)C2 (single isomer, unassigned) [Example 3.03, (−)-trans-5-(1H-benzotriazole-5-carbonyl)-3a-methoxy-hexahydro-pyrrolo[3,4-c]pyrrole-2-carboxylic acid 4-trifluoromethoxy-benzyl ester]
11 | 0.006 | C[C@@]12CN(C(=O)OCc3ccc(OC(F)(F)F)cc3)C[C@H]1CN(C(=O)c1ccc3[nH]nnc3c1)C2 (single isomer, unassigned) [Example 4.02, (−)-trans-5-(1H-benzotriazole-5-carbonyl)-3a-methyl-hexahydro-pyrrolo[3,4-c]pyrrole-2-carboxylic acid 4-trifluoromethoxy-benzyl ester]
12 | 0.007 | CO[C@@]12CN(C(=O)OCc3ccc(OC(F)(F)F)cc3)C[C@H]1CN(C(=O)c1ccc3[nH]nnc3c1)C2 (single isomer, unassigned) [Example 4.03, (+)-trans-5-(1H-benzotriazole-5-carbonyl)-3a-methoxy-hexahydro-pyrrolo[3,4-c]pyrrole-2-carboxylic acid 4-trifluoromethoxy-benzyl ester]

Row | Compound | IC50 [µM]
13 | CO[C@]12CN(C(=O)CCc3ccc(OC(F)(F)F)cc3)C[C@@H]1CN(C(=O)N1CCc3c(O)noc3C1)C2 (relative stereo) [Example 2.02, trans-1-[5-(3-hydroxy-5,7-dihydro-4H-[1,2]oxazolo[5,4-c]pyridine-6-carbonyl)-3a-methoxy-3,4,6,6a-tetrahydro-1H-pyrrolo[3,4-c]pyrrol-2-yl]-3-[4-(trifluoromethoxy)phenyl]propan-1-one] | 0.12
14 | CO[C@]12CN(C(=O)c3cc(OCC4CCOCC4)nc(C4CC4)c3)C[C@@H]1CN(C(=O)N1CCc3c(O)noc3C1)C2 (relative stereo) [Example 2.03, trans-[5-(3-hydroxy-5,7-dihydro-4H-[1,2]oxazolo[5,4-c]pyridine-6-carbonyl)-3a-methoxy-3,4,6,6a-tetrahydro-1H-pyrrolo[3,4-c]pyrrol-2-yl]-[2-cyclopropyl-6-(oxan-4-ylmethoxy)pyridin-4-yl]methanone] | 0.018
15 | CO[C@@]12CN(C(=O)c3cc(OCC4CCOCC4)nc(C4CC4)c3)C[C@H]1CN(C(=O)N1CCc3c(O)noc3C1)C2 (single isomer, unassigned) [Example 3.01, trans-[5-(3-hydroxy-5,7-dihydro-4H-[1,2]oxazolo[5,4-c]pyridine-6-carbonyl)-3a-methoxy-3,4,6,6a-tetrahydro-1H-pyrrolo[3,4-c]pyrrol-2-yl]-[2-cyclopropyl-6-(oxan-4-ylmethoxy)pyridin-4-yl]methanone] | 0.02
16 | CO[C@@]12CN(C(=O)c3cc(OCC4CCOCC4)nc(C4CC4)c3)C[C@H]1CN(C(=O)N1CCc3c(O)noc3C1)C2 (single isomer, unassigned) [Example 4.01, trans-[5-(3-hydroxy-5,7-dihydro-4H-[1,2]oxazolo[5,4-c]pyridine-6-carbonyl)-3a-methoxy-3,4,6,6a-tetrahydro-1H-pyrrolo[3,4-c]pyrrol-2-yl]-[2-cyclopropyl-6-(oxan-4-ylmethoxy)pyridin-4-yl]methanone] | 0.008

Same assay, conditions: ATX IC50, 30 nM ATX, 1 μM MR121 substrate, 30° C., pH 8.0

Row | Compound | IC50 [µM]
17 | CO[C@]12CN(C(=O)c3cc(OCC4CCOCC4)nc(C4CC4)c3)C[C@@H]1CN(C(=O)N1CCc3[nH]nnc3C1)C2 (racemic) [Example 2.00, trans-[3a-Methoxy-5-(1,4,6,7-tetrahydrotriazolo[4,5-c]pyridine-5-carbonyl)-3,4,6,6a-tetrahydro-1H-pyrrolo[3,4-c]pyrrol-2-yl]-[2-cyclopropyl-6-(oxan-4-ylmethoxy)pyridin-4-yl]methanone] | 0.012
18 | CO[C@]12CN(C(=O)c3cc(OCC4CCOCC4)nc(C4CC4)c3)C[C@@H]1CN(C(=O)N1CCc3[nH]nnc3C1)C2 (single isomer, unassigned) [Example 3.00, trans-[3a-methoxy-5-(1,4,6,7-tetrahydrotriazolo[4,5-c]pyridine-5-carbonyl)-3,4,6,6a-tetrahydro-1H-pyrrolo[3,4-c]pyrrol-2-yl]-[2-cyclopropyl-6-(oxan-4-ylmethoxy)pyridin-4-yl]methanone] | 0.006
19 | CO[C@]12CN(C(=O)c3cc(OCC4CCOCC4)nc(C4CC4)c3)C[C@@H]1CN(C(=O)N1CCc3[nH]nnc3C1)C2 (single isomer, unassigned) [Example 4.00, trans-[3a-methoxy-5-(1,4,6,7-tetrahydrotriazolo[4,5-c]pyridine-5-carbonyl)-3,4,6,6a-tetrahydro-1H-pyrrolo[3,4-c]pyrrol-2-yl]-[2-cyclopropyl-6-(oxan-4-ylmethoxy)pyridin-4-yl]methanone] | 0.01
